{"source": "patent US3968207A", "about": "“Method of controlling fleas and ticks on cats and dogs” (priority 1975, dated 1976)", "system": "Amblyomma americanum", "assay": "Control of adult ticks on rabbits, Table II", "type": "in vivo", "conditions": "for mortality at 0.05 % / mortality at 0.2 % / mortality at 0.4 %: Amblyomma americanum, topical, 96 h, 4 days after treatment", "description": "The midsection of each host rabbit is clipped, and a rubber capsule is cemented to the clipped portion of the skin. After a 24-hour drying period, the 10 ticks are placed in the capsule and allowed to attack the host for 72 hours. On the day of treatment, each capsule is sprayed with 2-3 cc. of the test compound, O,O,O',O'-tetramethyl O,O'-thiodi-p-phenylene phosphorothioate. Sufficient rabbits were used to test at concentrations of 0.05%, 0.20% and 0.40% (w/w), respectively.\nMortality was noted 4 days after treatment. On those rabbits where female ticks survived, five untreated male ticks were introduced and the ticks allowed to mate. Fully engorged females were then removed from the capsule and placed in petri dishes for oviposition. Effect of fecundity is then determined by comparing the percent of eggs laid and the percent of eggs which hatch in the treated versus the controls.", "note": "Read-outs that look alike come from different tables or passages of the source."}
{"smiles": "COP(=S)(OC)Oc1ccc(Sc2ccc(OP(=S)(OC)OC)cc2)cc1", "note": "[O,O,O',O'-tetramethyl O,O'-thiodi-p-phenylene phosphorothioate]", "values": [{"measurement": "Eggs Hatched (%)", "setting": "0.05% (w/w)", "result": 90, "unit": "%"}, {"measurement": "Eggs Hatched (%)", "setting": "0.20% (w/w)", "result": 50, "unit": "%"}, {"measurement": "Control of ticks", "setting": "0.20% and 0.40% (w/w)", "result": "effectively controls amblyomma ticks by killing the adult males and some females and rendering the female ova non-viable"}, {"measurement": "Eggs Hatched (%)", "setting": "0.40% (w/w)", "result": 1, "unit": "%"}, {"measurement": "mortality at 0.05 %", "setting": "0.05% (w/w), read-out: Deaths (%) Females", "result": 10, "unit": "%"}, {"measurement": "mortality at 0.05 %", "setting": "0.05% (w/w), read-out: Deaths (%) Males", "result": 70, "unit": "%"}, {"measurement": "mortality at 0.2 %", "setting": "0.20% (w/w), read-out: Deaths (%) Females", "result": 40, "unit": "%"}, {"measurement": "mortality at 0.2 %", "setting": "0.20% (w/w), read-out: Deaths (%) Males", "result": 100, "unit": "%"}, {"measurement": "mortality at 0.4 %", "setting": "0.40% (w/w), read-out: Deaths (%) Females", "result": 50, "unit": "%"}, {"measurement": "mortality at 0.4 %", "setting": "0.40% (w/w), read-out: Deaths (%) Males", "result": 100, "unit": "%"}]}
